Experimental data reported in BindingDB's records for doi:10.1021/jm701383e (Merck Serono, 2008).

Columns and labels:
[1] = biological target: T1, Prostaglandin D2 receptor 2 (Homo sapiens, UniProt Q9Y5Y4); assay: Radioligand Binding Assay
T1 sequence (Q9Y5Y4 whole entry): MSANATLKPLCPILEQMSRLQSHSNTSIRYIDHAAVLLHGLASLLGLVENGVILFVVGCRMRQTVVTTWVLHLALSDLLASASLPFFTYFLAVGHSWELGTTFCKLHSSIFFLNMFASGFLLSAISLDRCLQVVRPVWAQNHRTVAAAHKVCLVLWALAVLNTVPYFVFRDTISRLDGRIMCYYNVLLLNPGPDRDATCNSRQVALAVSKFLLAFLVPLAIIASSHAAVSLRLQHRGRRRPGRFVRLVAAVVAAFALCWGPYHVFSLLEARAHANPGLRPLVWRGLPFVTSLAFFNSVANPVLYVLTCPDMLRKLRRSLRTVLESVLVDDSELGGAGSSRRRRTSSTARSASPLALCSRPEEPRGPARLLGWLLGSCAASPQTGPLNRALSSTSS

[2] = biological target: T1, Prostaglandin D2 receptor 2; assay: Radioligand Binding Assay and [35S] GTP-gamma-S Binding Assay; details: for IC50: pH 7.4, 22 °C
Description: (§1) A scintillation proximity assay was used for radioligand competition and saturation binding assays. Nonspecific binding was determined in the presence of 1 uM PGD2. Binding activity was determined by using a 1450 Microbeta scintillation counter (Wallac, UK). Ki values were calculated by using the Cheng-Prusoff equation, and represent the average of at least three independent dose-response experiments. EC50/IC50 values were obtained from GTP-gamma-S binding assay, which measures antagonist activity of compounds in the presence of 80 nM PGD2.

[3] = biological target: T2, Prostaglandin D2 receptor 2 (Mus musculus, UniProt Q9Z2J6); assay: as above
T2 sequence (Q9Z2J6 whole entry): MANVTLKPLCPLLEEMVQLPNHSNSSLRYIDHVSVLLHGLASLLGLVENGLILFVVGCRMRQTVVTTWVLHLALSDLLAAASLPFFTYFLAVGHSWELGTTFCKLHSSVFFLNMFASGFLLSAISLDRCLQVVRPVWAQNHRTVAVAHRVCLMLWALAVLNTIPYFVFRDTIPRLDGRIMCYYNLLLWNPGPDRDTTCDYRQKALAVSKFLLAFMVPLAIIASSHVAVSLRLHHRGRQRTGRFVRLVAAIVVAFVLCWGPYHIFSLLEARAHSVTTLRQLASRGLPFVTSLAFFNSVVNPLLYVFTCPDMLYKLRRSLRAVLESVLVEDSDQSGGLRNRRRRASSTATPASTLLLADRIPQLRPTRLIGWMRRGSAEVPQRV
Description: as §1

Row | SMILES | EC50 [1] [nM] | other results
1 | O=C(O)CN1C(=O)[C@@]2(CC(=O)N(Cc3cc(Cl)ccc3F)C2=O)c2cc(Cl)ccc21 [2-[(3R)-5-chloro-1'-[(5-chloro-2-fluorophenyl)methyl]-1,2-dihydrospiro[indole-3,3'-pyrrolidine]-2,2',5'-trione]acetic acid] | 66 | –
2 | O=C(O)CN1C(=O)[C@]2(CC(=O)N(Cc3cc(Cl)ccc3F)C2)c2cc(Cl)ccc21 [2-[(3R)-5-chloro-1'-[(5-chloro-2-fluorophenyl)methyl]-1,2-dihydrospiro[indole-3,3'-pyrrolidine]-2,5'-dione]acetic acid] | – | Ki [2]: 683 nM
3 | O=C(O)CN1C(=O)[C@@]2(CC(=O)N(Cc3cc(Cl)ccc3F)C2)c2cc(Cl)ccc21 [2-[(3S)-5-chloro-1'-[(5-chloro-2-fluorophenyl)methyl]-1,2-dihydrospiro[indole-3,3'-pyrrolidine]-2,5'-dione]acetic acid] | – | Ki [3]: 88 nM; Ki [2]: 13 nM
4 | O=C(O)CN1C(=O)C2(CC(=O)N(Cc3ccccc3)C2=O)c2cc(Cl)ccc21 (configuration not stated) [2-{1'-benzyl-5-chloro-1,2-dihydrospiro[indole-3,3'-pyrrolidine]-2,2',5'-trione}acetic acid] | – | IC50 [2]: 418 nM
5 | O=C(O)CN1C(=O)C2(CC(=O)N(Cc3ccccc3F)C2=O)c2cc(Cl)ccc21 (configuration not stated) [2-{5-chloro-1'-[(2-fluorophenyl)methyl]-1,2-dihydrospiro[indole-3,3'-pyrrolidine]-2,2',5'-trione}acetic acid] | – | IC50 [2]: 212 nM
6 | Cc1nc(CN2C(=O)CC3(C2=O)C(=O)N(CC(=O)O)c2ccc(Cl)cc23)cs1 (configuration not stated) [2-{5-chloro-1'-[(2-methyl-1,3-thiazol-4-yl)methyl]-1,2-dihydrospiro[indole-3,3'-pyrrolidine]-2,2',5'-trione}acetic acid] | 236 | –
7 | O=C(O)CN1C(=O)C2(CC(=O)N(Cc3cccc(Cl)c3)C2=O)c2cc(Cl)ccc21 (configuration not stated) [2-{5-chloro-1'-[(3-chlorophenyl)methyl]-1,2-dihydrospiro[indole-3,3'-pyrrolidine]-2,2',5'-trione}acetic acid] | – | IC50 [2]: 122 nM
8 | Cc1noc(-c2ccccc2)c1CN1C(=O)CC2(C1=O)C(=O)N(CC(=O)O)c1ccc(Cl)cc12 (configuration not stated) [2-{5-chloro-1'-[(3-methyl-5-phenyl-1,2-oxazol-4-yl)methyl]-1,2-dihydrospiro[indole-3,3'-pyrrolidine]-2,2',5'-trione}acetic acid] | 23 | –
9 | Cc1noc(-c2ccccc2)c1CN1CC2(CC1=O)C(=O)N(CC(=O)O)c1ccc(Cl)cc12 (configuration not stated) [2-{5-chloro-1'-[(3-methyl-5-phenyl-1,2-oxazol-4-yl)methyl]-1,2-dihydrospiro[indole-3,3'-pyrrolidine]-2,5'-dione}acetic acid] | 19 | –
10 | O=C(O)CN1C(=O)C2(CC(=O)N(Cc3ccc(F)cc3)C2=O)c2cc(Cl)ccc21 (configuration not stated) [2-{5-chloro-1'-[(4-fluorophenyl)methyl]-1,2-dihydrospiro[indole-3,3'-pyrrolidine]-2,2',5'-trione}acetic acid] | – | IC50 [2]: 182 nM
11 | Cc1onc(-c2ccccc2)c1CN1C(=O)CC2(C1=O)C(=O)N(CC(=O)O)c1ccc(Cl)cc12 (configuration not stated) [2-{5-chloro-1'-[(5-methyl-3-phenyl-1,2-oxazol-4-yl)methyl]-1,2-dihydrospiro[indole-3,3'-pyrrolidine]-2,2',5'-trione}acetic acid] | 21 | –

More lines, main results first:

Row | EC50 [1] [nM] | SMILES | other results
12 | 48 | O=C(O)CN1C(=O)C2(CC(=O)N(Cc3csc(-c4cccc(Cl)c4)n3)C2=O)c2cc(Cl)ccc21 (configuration not stated) [2-(5-chloro-1'-{[2-(3-chlorophenyl)-1,3-thiazol-4-yl]methyl}-1,2-dihydrospiro[indole-3,3'-pyrrolidine]-2,2',5'-trione)acetic acid] | –
13 | 107 | O=C(O)CN1C(=O)[C@@]2(CC(=O)N(Cc3cccc(Cl)c3)C2=O)c2cc(Cl)ccc21 [2-[(3R)-5-chloro-1'-[(3-chlorophenyl)methyl]-1,2-dihydrospiro[indole-3,3'-pyrrolidine]-2,2',5'-trione]acetic acid] | –
14 | 82 | O=C(O)CN1C(=O)C2(CC(=O)N(Cc3cc(Cl)cc(Cl)c3)C2=O)c2cc(Cl)ccc21 (configuration not stated) [2-{5-chloro-1'-[(3,5-dichlorophenyl)methyl]-1,2-dihydrospiro[indole-3,3'-pyrrolidine]-2,2',5'-trione}acetic acid] | –
15 | 220 | Cc1noc(C)c1CN1C(=O)CC2(C1=O)C(=O)N(CC(=O)O)c1ccc(Cl)cc12 (configuration not stated) [2-{5-chloro-1'-[(3,5-dimethyl-1,2-oxazol-4-yl)methyl]-1,2-dihydrospiro[indole-3,3'-pyrrolidine]-2,2',5'-trione}acetic acid] | –
16 | 48 | O=C(O)CN1C(=O)C2(CC(=O)N(Cc3cc(Cl)ccc3F)C2=O)c2cc(Cl)ccc21 (configuration not stated) [2-{5-chloro-1'-[(5-chloro-2-fluorophenyl)methyl]-1,2-dihydrospiro[indole-3,3'-pyrrolidine]-2,2',5'-trione}acetic acid] | –
